According to ChEMBL document CHEMBL4619763 (J Nat Prod, 2020):
Active and inactive are the calls of the source. No cut-off for these calls is given here.

Columns and labels:
[1] = Toxicity in spontaneous hypertensive Wistar rat assessed as changes in plasma nitrite acid level at 0.1 mg/kg, po administered for 7 days; assay type: organism-based; details: in vivo, 168 h
Rattus norvegicus [2] = assay: Diuretic activity in normotensive Wistar rat assessed as urinary potassium excretion at 0.1 mg/kg, po administered via gavage after 8 hrs in presence of amiloride (reference value: 22.39 to 24.21 mmol/L); assay type: ADME, organism-based; details: in vivo
Rattus norvegicus [3] = assay: Diuretic activity in normotensive Wistar rat assessed as urine conductivity at 0.1 mg/kg, po administered via gavage after 8 hrs (reference value: 19.54 +/- 0.98 mS/cm); assay type: functional
Rattus norvegicus [4] = assay: Diuretic activity in normotensive Wistar rat assessed as urinary calcium excretion at 0.1 mg/kg, po administered via gavage after 8 hrs in presence of hydrochlorothiazide (reference value: 5.93 to 6.87 mg/dl); assay type: functional
Rattus norvegicus [5] = assay: Renal protective activity in spontaneous hypertensive Wistar rat assessed as reduction in hypertension-induced mesangial space disarrangement at 0.1 mg/kg, po administered via gavage for 7 days by hematoxylin and eosin staining based microscopic analysis; assay type: functional, organism-based
Rattus norvegicus [6] = assay: Diuretic activity in normotensive Wistar rat assessed as increase in urinary chloride excretion at 0.1 mg/kg, po administered via gavage for 7 days; assay type: functional, organism-based
[7] = Toxicity in spontaneous hypertensive Wistar rat assessed as changes in plasma chloride level at 0.1 mg/kg, po administered for 7 days; assay type: organism-based; details: in vivo, 168 h
Rattus norvegicus [8] = assay: Diuretic activity in spontaneous hypertensive Wistar rat assessed as decrease in urinary calcium excretion at 0.1 mg/kg, po administered via gavage for 7 days; assay type: functional, organism-based
Rattus norvegicus [9] = assay: Diuretic activity in normotensive Wistar rat assessed as urinary calcium excretion at 0.1 mg/kg, po administered via gavage after 8 hrs in presence of L-NAME (reference value: 5.93 to 6.87 mg/dl); assay type: functional
Rattus norvegicus [10] = assay: Anti-urolithic activity in normotensive Wistar rats assessed as reduction in CaOx crystal formation in cumulative urine at 0.1 mg/kg, po administered via gavage in presence of sodium oxalate by Neubauer counting chamber method relative to control; assay type: functional; parameters: scale not given: the % may be the effect or the level left
Rattus norvegicus [11] = assay: Diuretic activity in normotensive Wistar rat assessed as urinary calcium excretion at 0.01 mg/kg, […] administered via gavage after 8 hrs (reference value: 5.28 +/- 0.09 mg/dl); assay type: functional
Rattus norvegicus [12] = assay: Diuretic activity in normotensive Wistar rat assessed as urinary calcium excretion at 0.01 mg/kg, po administered via gavage after 8 hrs (reference value: 5.93 to 6.87 mg/dl); assay type: functional
Rattus norvegicus [13] = assay: Diuretic activity in normotensive Wistar rat assessed as urinary calcium excretion at 0.1 mg/kg, po administered via gavage after 8 hrs in presence of amiloride (reference value: 5.93 to 6.87 mg/dl); assay type: functional
Rattus norvegicus [14] = assay: Diuretic activity in normotensive Wistar rat assessed as urinary chloride excretion at 0.01 mg/kg, po administered via gavage after 8 hrs (reference value: 135.10 to 143.70 mmol/L); assay type: functional
Rattus norvegicus [15] = assay: Diuretic activity in normotensive Wistar rat assessed as urine conductivity at 0.1 mg/kg, po administered via gavage after 8 hrs in presence of furosemide (reference value: 19.54 +/- 0.98 mS/cm); assay type: functional
Rattus norvegicus [16] = assay: Diuretic activity in normotensive Wistar rat assessed as urine pH at 0.01 mg/kg, po administered via gavage after 8 hrs (reference value: 6.14 to 6.21); assay type: functional
Rattus norvegicus [17] = assay: Diuretic activity in normotensive Wistar rat assessed as urinary sodium excretion at 0.01 mg/kg, po administered via gavage after 8 hrs (reference value: 61.82 to 80.81 mmol/L); assay type: functional
Rattus norvegicus [18] = assay: Diuretic activity in normotensive Wistar rat assessed as urinary calcium excretion at 0.1 mg/kg, po administered via gavage after 8 hrs in presence of furosemide (reference value: 5.93 to 6.87 mg/dl); assay type: functional
[19] = Toxicity in normotensive Wistar rat assessed as changes in urea level in urine at 0.1 mg/kg, po administered for 7 days; assay type: organism-based; details: in vivo, 168 h
Rattus norvegicus [20] = assay: Diuretic activity in normotensive Wistar rat assessed as urinary sodium excretion at 0.1 mg/kg, po administered via gavage after 8 hrs (reference value: 61.82 to 80.81 mmol/L); assay type: functional
[21] = Toxicity in normotensive Wistar rat assessed as changes in plasma nitrite acid level at 0.1 mg/kg, po administered for 7 days; assay type: organism-based; details: in vivo, 168 h
Rattus norvegicus [22] = assay: In vivo antioxidant activity in Wistar rat model of hypertension-induced oxidative stress assessed as reduction in reactive oxygen species generation in renal tissue at 0.1 mg/kg, po administered via gavage for 7 days by DCFH-DA probe based fluorimetric assay; assay type: functional, organism-based
Rattus norvegicus [23] = assay: Diuretic activity in spontaneous hypertensive Wistar rat assessed as increase in urine volume at 0.1 mg/kg, po administered via gavage for 7 days; assay type: functional, organism-based
Rattus norvegicus [24] = assay: Diuretic activity in normotensive Wistar rat assessed as urine pH at 0.01 mg/kg, ip after 8 hrs (reference value: 6.05 +/- 0.22); assay type: functional
Rattus norvegicus [25] = assay: Diuretic activity in normotensive Wistar rat assessed as urinary chloride excretion at 0.1 mg/kg, po administered via gavage after 8 hrs in presence of amiloride (reference value: 135.10 to 143.70 mmol/L); assay type: functional
[26] = Toxicity in spontaneous hypertensive Wistar rat assessed as changes in urea level in urine at 0.1 mg/kg, po administered for 7 days; assay type: organism-based; details: in vivo, 168 h
Rattus norvegicus [27] = assay: Diuretic activity in normotensive Wistar rat assessed as urine conductivity at 1 mg/kg, ip after 8 hrs (reference value: 24.87 +/- 0.54 mS/cm); assay type: functional
[28] = Anti-urolithic activity in synthetic urine assessed as decrease in absorbance at 0.1 mg/mL after 30 mins relative to control; assay type: functional; parameters: scale not given: the % may be the effect or the level left
Rattus norvegicus [29] = assay: Diuretic activity in normotensive Wistar rat assessed as urinary chloride excretion at 0.01 mg/kg, ip […] after 8 hrs (reference value: 103.30 +/- 10.25 mmol/L); assay type: functional
Rattus norvegicus [30] = assay: Diuretic activity in normotensive Wistar rat assessed as urine conductivity at 0.01 mg/kg, po administered via gavage after 8 hrs (reference value: 19.54 +/- 0.98 mS/cm); assay type: functional
Rattus norvegicus [31] = assay: Diuretic activity in normotensive Wistar rat assessed as urinary sodium excretion at 1 mg/kg, po administered via gavage after 8 hrs (reference value: 61.82 to 80.81 mmol/L); assay type: functional
Rattus norvegicus [32] = assay: Diuretic activity in normotensive Wistar rat assessed as urinary potassium excretion at 1 mg/kg, ip […] after 8 hrs (reference value: 22.33 +/- 2.81 mmol/L); assay type: ADME, organism-based; details: in vivo
Rattus norvegicus [33] = assay: Diuretic activity in normotensive Wistar rat assessed as urine pH at 0.1 mg/kg, ip after 8 hrs (reference value: 6.05 +/- 0.22); assay type: functional
[34] = Toxicity in normotensive Wistar rat assessed as changes in plasma sodium level at 0.1 mg/kg, po administered for 7 days; assay type: organism-based; details: in vivo, 168 h
[35] = Toxicity in normotensive Wistar rat assessed as changes in urinary creatinine at 0.1 mg/kg, po administered for 7 days; assay type: organism-based; details: in vivo, 168 h
[36] = Toxicity in normotensive Wistar rat assessed as changes in plasma ALT level at 0.1 mg/kg, po administered for 7 days; assay type: organism-based; details: in vivo, 168 h

With `C[C@@H]1O[C@@H](Oc2c(-c3ccc(O)cc3)oc3cc(O)cc(O)c3c2=O)[C@H](O)[C@H](O)[C@H]1O` [AFZELIN] the Activity [1] was “Non-Toxic”, the Activity (Rattus norvegicus [2]) was 1.95 mmol/L and the Activity (Rattus norvegicus [3]) was 17.05 - 18.31 mS/cm. For the same compound, the Activity (Rattus norvegicus [4]) was 4.54 mg/dL, the Activity (Rattus norvegicus [5]) was “Active” and the Activity (Rattus norvegicus [6]) was “Active”. The Activity [7] was “Non-Toxic”, the Activity (Rattus norvegicus [8]) was “Active” and the Activity (Rattus norvegicus [9]) was 4.82 mg/dL. The Activity (Rattus norvegicus [10]) was 41.3%, the Activity (Rattus norvegicus [11]) was 5.6 mg/dL and the Activity (Rattus norvegicus [12]) was 5.23 mg/dL. The Activity (Rattus norvegicus [13]) was 4.74 mg/dL, the Activity (Rattus norvegicus [14]) was 113.3 mmol/L and the Activity (Rattus norvegicus [15]) was 20.62 mS/cm. The pH (Rattus norvegicus [16]) was 5.73, the Activity (Rattus norvegicus [17]) was 61.35 mmol/L and the Activity (Rattus norvegicus [18]) was 5.36 mg/dL. For the same compound, the Activity [19] was “Non-Toxic”, the Activity (Rattus norvegicus [20]) was 53.09 to 56.99 mmol/L and the Activity [21] was “Non-Toxic”. The Activity (Rattus norvegicus [22]) was “Active”, the Activity (Rattus norvegicus [23]) was “Active” and the pH (Rattus norvegicus [24]) was 5.82. For the same compound, the Activity (Rattus norvegicus [25]) was 161.1 mmol/L, the Activity [26] was “Non-Toxic” and the Activity (Rattus norvegicus [27]) was 24.92 mS/cm. The Activity [28] was 21.54%, the Activity (Rattus norvegicus [29]) was 96.18 mmol/L and the Activity (Rattus norvegicus [30]) was 22.17 mS/cm. For the same compound, the Activity (Rattus norvegicus [31]) was 74.67 mmol/L, the Activity (Rattus norvegicus [32]) was 14.41 mmol/L and the pH (Rattus norvegicus [33]) was 5.89. For the same compound, the Activity [34] was “Non-Toxic”, the Activity [35] was “Non-Toxic” and the Activity [36] was “Non-Toxic”.
